The record followed here is patent US9969674B2, “MMF-derivatives of ethyleneglycols” (RATIOPHARM GMBH, priority 2014, dated 2018).

Several values for one entry are separate records, joined by “and”; a condition that tells them apart may be missing. Equal values may be shown once. Where a name gives a salt, the structure may show the parent alone.

Data set [1] is described as follows: Kinetics of MMF-release during incubation in intestinal fluid of the minipig. The data set is classed as in vitro ADME, Göttingen SPF minipig. The note with it: for release of the second equivalent of MMF / release kinetics of the first equivalent of MMF: diluted minipig small intestinal fluid pH 6.8, 37° C., compared with DMF (FIG. 1); for release kinetics of the first equivalent of MMF: time 0-30 min. The protocol:
Example 7: Investigation and Comparison of the Kinetics of MMF-Release of the Different Compounds of the Present Invention and DMF During Incubation in Intestinal Fluid of the Minipig
Intestinal tissue/fluid and enterocyte samples were taken from a 10 month old, female Göttingen SPF minipig. The body weight was 21 kg. The minipig was fasted for approximately 28 hours before sampling of intestinal fluid/tissues and enterocytes. On the day of sampling, the minipig was weighed and anaesthetised by an intramuscular injection in the neck or in the left hind leg (about 0.3 ml per kg body weight) of a mixture of Zoletil 50 Vet., Virbac, France (125 mg tiletamine and 125 mg zolazepam), Rompun Vet., Bayer, Germany (20 mg xylazine/ml, 6.5 ml), Ketaminol Vet., Veterinaria AG, Switzerland (100 mg ketamine/ml, 1.5 ml) and Methadon DAK, Nycomed Danmark, Denmark (10 mg methadon/ml, 2.5 ml). The animal was killed by exsanguination before sampling of intestinal fluid. An intestinal segment was ligated at both ends before removal. The isolated tissue was placed in isotonic saline and opened by a longitudinal cut for sampling of intestinal fluid.
The intestinal tissue from each segment was transferred into a Centrifuge Tube, immersed in 10 ml 50 mM phosphate buffer, pH 6.8 and frozen at −70° C.
• Instrument: Acquity UPLC system coupled with a TQ detector (triple quadruple mass spectrometer) UPLC Method: Column: Phenomenex Kinetex C18, 100 A, 2.6 μm (150×4.6 mm) flow: 0.4 ml/min split: appr. 100 μl/min to MS Temperature: 30° C. solvent system (isocratic): • Solvent A 25% water with 0.1% acetic acid • Solvent B 75% methanol with 0.1% acetic acid stoptime: 6 min autosampler temperature: 8° C. injection volume: 4 μl retention time: MN/IF: 4.3 min • MEF: 4.7 min Mass Spectrometry software: Masslynx 4.1 detection mode: electrospray/negative ions (ESP−) capillary voltage: 2.3 kV source temperature: 100° C. desolvation temperature: 450° C. cone voltage: 18 V desolvation gas: N2 650 L/h cone gas: N2, 20 L/h collision gas: argon, appr. 3.3*10^−3 mbar collision energy: 11 eV MRM [m/z]: 128.94>85.03 Monomethylfumarate dwell: 200 msec • 142.99>99.06 Monoethylfumarate (ISTD) dwell: 200 msec 7.2.1.2 Stock and Calibration Solutions
Stock (SS), working (WS) and calibration solutions of the analyte monomethyl fumarate (MMF) and the internal standard (ISTD) […] (MEF) were prepared as described below. • SSMMF: In a 10 ml volumetric flask, 6.5 mg MMF (Batch: MKRJ0642V/Aldrich) were dissolved in methanol and made up to volume (c=650 μg/ml) • SSISTD: In a 100 ml volumetric flask, 10 mg MEF (Batch: STBC5219V/Aldrich) were dissolved in methanol and made up to volume (c=100 μg/ml) • WSISTD: 100 μl SSISTD were transferred into a 10 ml volumetric flask and made up to volume with acetonitrile (c=1,000 ng/ml);
Calibration solutions were prepared by serial dilution of SSMMF; diluted small intestinal fluid (diluted by 1/20 v/v with 50 mM KH2PO4, pH 6.8; (dil IF) was used as matrix. The dilution scheme is given below:
50 μl sample (calibration solution or sample of an incubation experiment with MMF prodrugs) was mixed with 50 μl WSISTD, 20 μl formic acid and 100 μl acetonitrile. This mixture was vortexed for 15 sec and centrifuged (13,000 rpm, 3 min). Thereafter, 4 μl of the supernatant were subjected to LC-MS analysis.
Stock solutions were prepared in DMSO or, for one compound, in DMSO with 10% (v/v) water. Concentrations in stock solutions were […] for compounds with one, two and three molar MMF equivalents.
In a HPLC glass vial, 8 μl of stock solution were mixed with 792 μl dil IF and the mixture was stirred (250 rpm) in a water bath (T=37° C.).
Immediately after mixing as well as at t=15 min, 30 min, 60 min, 90 min and 120 min, 50 μl were withdrawn and prepared for LC-MS analysis as described in chapter. 2.1.3. […]

The test system of data set [2] is MOG35-55-induced experimental autoimmune encephalomyelitis (EAE). Briefly: MOG35-55-induced experimental autoimmune encephalomyelitis (EAE) in C57BL/6 mice. The data set is classed as in vivo. Particulars: for body weight: prophylactic oral treatment from day 1, observation day 1-13 (FIG. 2); for development of clinical symptoms (clinical score): prophylactic oral treatment from day 1, observation day 1-13, 11.54 mM dose formulation, 10 ml/kg (FIG. 3). The source says:
Assessment and comparison of the efficacy of compounds of the invention and DMF (reference) in MOG35-55-induced experimental autoimmune encephalomyelitis (EAE) in C57BL/6 mice: • Test system: male C57BL/6 mice, 12 weeks old; 10 animals per treatment group; • Induction of EAE: Day −1—subcutaneous injection of MOG35-55, suspended in complete Freund's adjuvans and intraperitoneal injection of pertussis toxin. • Day 3—intraperitoneal injection of pertussis toxin. • Treatment: Dimethylfumarate and test substances or vehicle only were administered via oral route. Test substances were dissolved or suspended in 0.5% hydroxyethylcellulose (dissolved in 50 mM potassium dihydrogenphosphate, pH 5.0). Drug concentration in dose formulations: 11.54 mM; • Dose volume: 10 ml/kg body weight; • Start of treatment: Day 1 • Observations (clinical Observations were recorded daily between day 1 and 13. score and body weight): • Clinical score: grade 0-10; 0 (=no impairments), 1 (normal movement; limp tail: proximal ⅔ of the tail is limp and droopy), 2 (normal movement; whole tail is limp; 3 (wobbly walk; absent righting reflex), 4 (gait ataxia), 5 (mild paraparesis), 6 (moderate paraparesis), 7 (severe paraparesis or paraplegia), 8 (tetraparesis), 9 (moribund), 10 (death).

The test system of data set [3] is Caco-2 monolayers. Briefly: in vitro. The protocol: (§1) The membrane permeability was investigated in Caco-2 monolayers. DMF was investigated in a separate experiment for comparison.
(§2) Based on the assumption that in vivo, the intact molecules will be pre-systemically metabolized, the permeability test was performed only in the apical→basolateral direction. The test concentration in the apical medium was 250 μM. […] Sampling time points were 15, 45 and 90 min.

Data set [4] is described as follows: In vivo pharmacokinetics of MMF after oral administration in NMRI mice. Particulars: female, mouse, 65.3 mg/kg. The protocol:
The pharmacokinetics of MMF after administration of the compound of Example 1 and DMF for comparison was investigated in female NMRI mice (3 animals per group). The test compound was dissolved in DMSO/PEG300 (20/80) and administered p.o. (gavage) at a dose volume of 10 ml/kg. DMF was given at a dose of 45 mg/kg. The test compound was dosed at a MMF-equivalent dose, i.e. 65.3 mg/kg. Blood samples were taken at 0.25, 0.5, 1.0, 2.0, 4.0, 6.0 and 8.0 h after drug administration.
Pharmacokinetic parameters, derived by non-compartmental analysis for test compound (Example 1): […]

Data set [5] can be described thus: in vitro. Particulars: human, Caco-2. On the procedure:
as §1, §2

Consider `COC(=O)/C=C/C(=O)OC(C)OC(=O)/C=C/C(=O)OC` [(E)-But-2-enedioic acid 1-((E)-3-methoxycarbonyl-acryloyloxy)-ethyl ester methyl ester, reference compound], for which the “release kinetics of MMF” value in data set [1] (incubation in intestinal fluid of the minipig, compared with DMF (FIG. 8)) is on record as “considerable faster than that of DMF”.

`COC(=O)/C=C/C(=O)OC` [DMF, Dimethyl fumarate]: in data set [2], the body weight result was “remained stable” and the “development of clinical symptoms (clinical score)” value is “protected from the development of clinical symptoms”. Besides, in data set [3] (Caco-2), the “Recovery [%] mean ± s.d.” value came out at 11.6 ± 1.0% and the “permeability category compared to the reference molecules” value is “moderate permeability”. In data set [3] (human, Caco-2, 250 μM), the “Papp × 10^−6 [cm/sec] mean ± s.d.” value is reported as 1.8 ± 0.2 10^−6 cm/sec.

The term AUC(0-inf) denotes total exposure, with the tail of the curve extrapolated. A higher AUC(0-inf) goes with more exposure. What is called Papp A→B is how fast a substance crosses the layer from the apical side. In data set [4], `COC(=O)/C=C/C(=O)OCCOCCOCCOCCOC(=O)/C=C/C(=O)OC` [Example 1, (E)-But-2-enedioic acid 2-(2-{2-[2-((E)-3-methoxycarbonyl-acryloyl-oxy)-ethoxy]-ethoxy}-ethoxy)-ethyl ester methyl ester] returned an AUC(0-inf) of 5990 ng·h/mL. In data set [2], the body weight result is “remained stable” and the “development of clinical symptoms (clinical score)” value is “protected from the development of clinical symptoms”. Further, in data set [1], the “release of the second equivalent of MMF” value is reported as “released more slowly” and the “release kinetics of the first equivalent of MMF” value was “essentially identical to that of DMF”. The “permeability category compared to the reference molecules” value in data set [3] (Caco-2) is reported as “moderate permeability”. In data set [5], this molecule came in with an apical-to-basolateral permeability (Papp A→B) at 250 μM of 1 ± 0.1 ×10⁻⁶ cm/s and a recovery at 90 min, 250 µM of 17.1%.

Take `COC(=O)/C=C/C(=O)OCCOCCOCCOC(=O)/C=C/C(=O)OC` [Example 2, (E)-But-2-enedioic acid 2-{2-[2-((E)-3-methoxycarbonyl-acryloyl-oxy)-ethoxy]-ethoxy}-ethyl ester methyl ester]: in data set [1], the “release of the second equivalent of MMF” value is recorded as “released more slowly” and the “release kinetics of the first equivalent of MMF” value is listed as “essentially identical to that of DMF”.

Turning to `COC(=O)/C=C/C(=O)OCCOCCOC(=O)/C=C/C(=O)OC` [Example 3, (E)-But-2-enedioic acid 2-[2-((E)-3-methoxycarbonyl-acryloyloxy)-ethoxy]-ethyl ester methyl ester], in data set [1], the “release of the second equivalent of MMF” value was “released more slowly” and the “release kinetics of the first equivalent of MMF” value is “essentially identical to that of DMF”.

With `C[C@]12CC[C@H]3[C@@H](CCC4=CC(=O)CC[C@@]43C)[C@@H]1CC[C@@H]2O` [Testosterone, testosterone], the “Recovery [%] mean ± s.d.” value in data set [3] (direction a-b) is 67.3 ± 1.2% and 62.5 ± 2.1%; in data set [3] (direction b-a) it was 94.9 ± 0.9% and 76.1 ± 4.5%.
